Read-outs that look alike come from different tables or passages of the source.

One test has as its target human orexin-1 receptor (Homo sapiens (Human), UniProt O43613). In words: In vitro assay: intracellular calcium measurements (FLIPR), antagonistic activity. To be noted: CHO cells, 3 nM orexin-A, compound incubation 120 min; marked values are geometric means of n = 2-6; read-out: IC50 OX1. The class given is cell-based. How it is done:
(§1) In Vitro Assay: Intracellular Calcium Measurements:
(§2) Chinese hamster ovary (CHO) cells expressing the human orexin-1 receptor and the human orexin-2 receptor, respectively, are grown in culture medium (Ham F-12 with L-Glutamine) containing 300 µg/ml G418, 100 U/ml penicillin, 100 µg/ml streptomycin and 10% heat inactivated fetal calf serum (FCS). The cells are seeded at 20,000 cells/well into 384-well black clear bottom sterile plates (Greiner). The seeded plates are incubated overnight at 37° C. in 5% CO2.
(§3) Fluorescence is measured for each well at 1 second intervals, and the height of each fluorescence peak is compared to the height of the fluorescence peak induced by 3 nM orexin-A with vehicle in place of antagonist. […] Optimized conditions were achieved by adjustment of pipetting speed and cell splitting regime. The calculated IC50 values may fluctuate depending on the daily cellular assay performance. Fluctuations of this kind are known to those skilled in the art.

The next test addresses human orexin-2 receptor (Homo sapiens (Human), UniProt O43614). Described as above. The class given is cell-based. How it is done: as §1, §2, §3
The mark [1] stands for this setting: CHO cells, 3 nM orexin-A, compound incubation 120 min, marked values are geometric means of n = 2-6, read-out: IC50 OX2.

human orexin-2 receptor, sequence (O43614 whole entry): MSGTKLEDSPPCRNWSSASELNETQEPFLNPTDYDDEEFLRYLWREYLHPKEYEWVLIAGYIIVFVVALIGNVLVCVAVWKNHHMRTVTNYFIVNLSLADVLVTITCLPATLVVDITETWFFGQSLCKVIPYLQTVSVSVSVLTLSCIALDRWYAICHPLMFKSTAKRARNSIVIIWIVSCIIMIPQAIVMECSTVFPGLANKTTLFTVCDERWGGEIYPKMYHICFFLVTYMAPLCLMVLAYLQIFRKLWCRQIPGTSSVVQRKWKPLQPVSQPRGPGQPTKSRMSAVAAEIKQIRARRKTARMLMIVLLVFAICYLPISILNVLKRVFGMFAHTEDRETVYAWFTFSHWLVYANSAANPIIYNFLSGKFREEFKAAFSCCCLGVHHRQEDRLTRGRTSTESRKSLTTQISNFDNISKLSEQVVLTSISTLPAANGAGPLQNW
human orexin-1 receptor, sequence (O43613 whole entry): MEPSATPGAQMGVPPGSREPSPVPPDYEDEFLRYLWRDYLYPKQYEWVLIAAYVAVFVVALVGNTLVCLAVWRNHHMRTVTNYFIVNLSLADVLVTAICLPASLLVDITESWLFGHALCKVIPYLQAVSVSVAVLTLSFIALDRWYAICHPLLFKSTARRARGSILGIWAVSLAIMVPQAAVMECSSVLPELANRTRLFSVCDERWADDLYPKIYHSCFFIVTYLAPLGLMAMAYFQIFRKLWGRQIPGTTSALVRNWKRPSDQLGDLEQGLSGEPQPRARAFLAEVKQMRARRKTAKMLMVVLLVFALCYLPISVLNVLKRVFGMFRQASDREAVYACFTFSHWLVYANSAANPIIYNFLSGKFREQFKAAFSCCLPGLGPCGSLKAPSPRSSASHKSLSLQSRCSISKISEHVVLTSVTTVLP

By IC50 is commonly meant the concentration that inhibits the measured activity by half. In the case of `COc1cccc(Cl)c1[C@@H]1C[C@H](F)C(=O)N1Cc1ccc(OC(F)(F)F)cc1` (racemic) [Example 302, rac-(3S*,5S*)-5-(2-chloro-6-methoxyphenyl)-3-fluoro-1-(4-(trifluoromethoxy)benzyl)pyrrolidin-2-one], the IC50 at human orexin-1 receptor was found to be 1380 nM; at human orexin-2 receptor (setting [1]), 103 nM.

With `CCOc1ccccc1[C@@H]1C[C@H](Cl)C(=O)N1Cc1ccc(OC(F)(F)F)cc1` (racemic) [Example 304, rac-(3S*,5S*)-3-chloro-5-(2-ethoxyphenyl-1-(4-(trifluoromethoxy)benzyl)pyrrolidin-2-one], the IC50 was found to be 615 nM on human orexin-1 receptor and 129 nM on human orexin-2 receptor (setting [1]).

Consider `COc1cccc(F)c1[C@@H]1C[C@H](Cl)C(=O)N1Cc1ccc(OC(F)(F)F)cc1` (racemic) [Example 305, rac-(3S*,5S*)-3-chloro-5-(2-fluoro-6-methoxyphenyl)-1-(4-(trifluoromethoxy)benzyl)pyrrolidin-2-one], for which the IC50 on human orexin-1 receptor stood at 396 nM; on human orexin-2 receptor (setting [1]), 96 nM.

Consider `COc1cccc(Cl)c1[C@@H]1C[C@H](Cl)C(=O)N1Cc1ccc(OC(F)(F)F)cc1` (racemic) [Example 306, rac-(3S*,5S*)-3-chloro-5-(2-chloro-6-methoxyphenyl)-1-(4-(trifluoromethoxy)benzyl)pyrrolidin-2-one], for which the IC50 at human orexin-1 receptor was found to be 740 nM; on human orexin-2 receptor (setting [1]), 108 nM.

Turning to `COc1cccc(C)c1[C@@H]1C[C@@H](O)C(=O)N1Cc1ccc(OC(F)(F)F)cc1` (racemic) [Example 309, rac-(3R*,5S*)-3-hydroxy-5-(2-methoxy-6-methylphenyl)-1-(4-(trifluoromethoxy)benzyl)pyrrolidin-2-one], the concentration for half-maximal inhibition (IC50) at human orexin-1 receptor turned out to be 2220 nM; at human orexin-2 receptor (setting [1]), 887 nM.

Consider `COc1ccc2ccccc2c1[C@@H]1C[C@@H](O)C(=O)N1Cc1ccc(OC(F)(F)F)cc1` (racemic) [Example 312, rac-(3R*,5S*)-3-hydroxy-5-(2-methoxynaphthalen-1-yl)-1-(4-(trifluoromethoxy)benzyl)pyrrolidin-2-one], for which the IC50 on human orexin-1 receptor stood at 2200 nM; at human orexin-2 receptor (setting [1]) it was 826 nM.

Take `COc1c(F)ccc(F)c1[C@@H]1C[C@@H](O)C(=O)N1Cc1ccc(OC(F)(F)F)cc1` (racemic) [Example 313, rac-(3R*,5S*)-5-(3,6-difluoro-2-methoxyphenyl)-3-hydroxy-1-(4-(trifluoromethoxy)benzyl)pyrrolidin-2-one]: the IC50 on human orexin-1 receptor is 1460 nM; on human orexin-2 receptor (setting [1]), 1030 nM.

On to `COc1ccc(Cl)c(OC)c1[C@@H]1C[C@@H](O)C(=O)N1Cc1ccc(OC(F)(F)F)cc1` (racemic) [Example 314, rac-(3R*,5S*)-5-(3-chloro-2,6-dimethoxyphenyl)-3-hydroxy-1-(4-(trifluoromethoxy)benzyl)pyrrolidin-2-one], for which the IC50 at human orexin-1 receptor amounted to 1100 nM; on human orexin-2 receptor (setting [1]), 920 nM.

For the compound `COc1ccc2ccccc2c1[C@@H]1C[C@H](Cl)C(=O)N1Cc1ccc(OC(F)(F)F)cc1` (racemic) [Example 316, rac-(3S*,5S*)-3-chloro-5-(2-methoxynaphthalen-1-yl)-1-(4-(trifluoromethoxy)benzyl)pyrrolidin-2-one], the values for the IC50 on human orexin-1 receptor and on human orexin-2 receptor (setting [1]) were 329 nM and 1040 nM, respectively.

As for `COc1ccc(Cl)c(OC)c1[C@@H]1C[C@H](Cl)C(=O)N1Cc1ccc(OC(F)(F)F)cc1` (racemic) [Example 318, rac-(3S*,5S*)-3-chloro-5-(3-chloro-2,6-dimethoxyphenyl)-1-(4-(trifluoromethoxy)benzyl)pyrrolidin-2-one], the figures for the IC50 on human orexin-1 receptor and at human orexin-2 receptor (setting [1]) were 167 nM and 444 nM, respectively.

As to `COc1ccc(Cl)c(OC)c1[C@@H]1C[C@H](F)C(=O)N1Cc1ccc(OC(F)(F)F)cc1` (racemic) [Example 319, rac-(3S*,5S*)-5-(3-chloro-2,6-dimethoxyphenyl)-3-fluoro-1-(4-(trifluoromethoxy)benzyl)pyrrolidin-2-one], the values for the IC50 at human orexin-1 receptor and at human orexin-2 receptor (setting [1]) were 971 nM and 1020 nM, respectively.

Turning to `COc1cccc(F)c1[C@@H]1C[C@@H](Cl)C(=O)N1Cc1ccc(OC(F)(F)F)cc1` (racemic) [Example 324, rac-(3R*,5S*)-3-chloro-5-(2-fluoro-6-methoxyphenyl)-1-(4-(trifluoromethoxy)benzyl)pyrrolidin-2-one], the IC50 at human orexin-1 receptor came out at 968 nM; at human orexin-2 receptor (setting [1]) it was 1210 nM.

Turning to `COc1cccc(C)c1[C@@H]1C[C@H](Cl)C(=O)N1Cc1ccc(OC(F)(F)F)cc1` (racemic) [Example 326, rac-(3S*,5S*)-3-chloro-5-(2-methoxy-6-methylphenyl)-1-(4-(trifluoromethoxy)benzyl)pyrrolidin-2-one], the IC50 on human orexin-1 receptor stood at 1520 nM; at human orexin-2 receptor (setting [1]), 126 nM.

`CCOc1c(F)cccc1[C@@H]1C[C@H](F)C(=O)N1Cc1ccc(OC(F)(F)F)cc1` (racemic) [Example 331, rac-(3S*,5S*)-5-(2-ethoxy-3-fluorophenyl)-3-fluoro-1-(4-(trifluoromethoxy)benzyl)pyrrolidin-2-one]: the values for the IC50 on human orexin-1 receptor and at human orexin-2 receptor (setting [1]) were 1150 nM and 434 nM, respectively.

As for `COc1ccc(F)c(OC)c1[C@@H]1C[C@H](F)C(=O)N1Cc1ccc(OC(F)(F)F)cc1` (racemic) [Example 332, rac-(3S*,5S*)-3-fluoro-5-(3-fluoro-2,6-dimethoxyphenyl)-1-(4-(trifluoromethoxy)benzyl)pyrrolidin-2-one], the IC50 at human orexin-1 receptor amounted to 1020 nM; at human orexin-2 receptor (setting [1]), 296 nM.

Turning to `CCOc1cccc(F)c1[C@@H]1C[C@@H](Cl)C(=O)N1Cc1ccc(OC(F)(F)F)cc1` (racemic) [Example 333, rac-(3R*,5S*)-3-chloro-5-(2-ethoxy-6-fluorophenyl)-1-(4-(trifluoromethoxy)benzyl)pyrrolidin-2-one], the IC50 on human orexin-1 receptor was determined as 965 nM; at human orexin-2 receptor (setting [1]), 184 nM.

In the case of `CCOc1cccc(F)c1[C@@H]1C[C@@H](O)C(=O)N1Cc1ccc(OC(F)(F)F)cc1` (racemic) [Example 334, rac-(3R*,5S*)-5-(2-ethoxy-6-fluorophenyl)-3-hydroxy-1-(4-(trifluoromethoxy)benzyl)pyrrolidin-2-one], the values for the IC50 on human orexin-1 receptor and at human orexin-2 receptor (setting [1]) were 2120 nM and 33 nM, respectively.

In the case of `CCOc1cc(F)ccc1[C@@H]1C[C@@H](O)C(=O)N1Cc1ccc(OC(F)(F)F)cc1` (racemic) [Example 335, rac-(3R*,5S*)-5-(2-ethoxy-4-fluorophenyl)-3-hydroxy-1-(4-(trifluoromethoxy)benzyl)pyrrolidin-2-one], the IC50 at human orexin-1 receptor stood at 5350 nM; on human orexin-2 receptor (setting [1]) it was 1360 nM.

On to `CCOc1ccc(F)c(F)c1[C@@H]1C[C@H](F)C(=O)N1Cc1ccc(OC(F)(F)F)cc1` (racemic) [Example 340, rac-(3S*,5S*)-5-(6-ethoxy-2,3-difluorophenyl)-3-fluoro-1-(4-(trifluoromethoxy)benzyl)pyrrolidin-2-one], for which the half-maximal inhibitory concentration (IC50) came out at 981 nM at human orexin-1 receptor and 17 nM at human orexin-2 receptor (setting [1]).

Take `CCOc1cc(F)ccc1[C@@H]1C[C@@H](Cl)C(=O)N1Cc1ccc(OC(F)(F)F)cc1` (racemic) [Example 341]: the figures for the IC50 at human orexin-1 receptor and at human orexin-2 receptor (setting [1]) were 3340 nM and 1630 nM, respectively.

As to `CCOc1cccc(F)c1[C@@H]1C[C@H](F)C(=O)N1Cc1ccc(OC(F)(F)F)cc1` (racemic) [Example 342, rac-(3S*,5S*)-5-(2-ethoxy-6-fluorophenyl)-3-fluoro-1-(4-(trifluoromethoxy)benzyl)pyrrolidin-2-one], the IC50 is 1110 nM on human orexin-1 receptor and 8 nM at human orexin-2 receptor (setting [1]).

As to `CCOc1cccc(F)c1[C@@H]1C[C@H](Cl)C(=O)N1Cc1ccc(OC(F)(F)F)cc1` (racemic) [Example 343, rac-(3S*,5S*)-3-chloro-5-(2-ethoxy-6-fluorophenyl)-1-(4-(trifluoromethoxy)benzyl)pyrrolidin-2-one], the figures for the IC50 on human orexin-1 receptor and on human orexin-2 receptor (setting [1]) were 603 nM and 15 nM, respectively.

Consider `CCOc1cc(F)ccc1[C@@H]1C[C@H](Cl)C(=O)N1Cc1ccc(OC(F)(F)F)cc1` (racemic) [Example 345], for which the concentration for half-maximal inhibition (IC50) on human orexin-1 receptor came to 745 nM; on human orexin-2 receptor, 462 nM.

For `COc1cccc(OC)c1[C@@H]1C[C@@H](O)C(=O)N1Cc1ccc2oc3ccccc3c2c1` (racemic) [Example 357, rac-(3R*,5S*)-1-(dibenzo[b,d]furan-2-ylmethyl)-5-(2,6-dimethoxyphenyl)-3-hydroxypyrrolidin-2-one], the results for the IC50 at human orexin-1 receptor and on human orexin-2 receptor (setting [1]) were 20 nM and 4 nM, respectively.

Turning to `COc1cccc(OC)c1[C@@H]1C[C@H](Cl)C(=O)N1Cc1ccc2oc3ccccc3c2c1` (racemic) [Example 369, rac-(3S*,5S*)-3-chloro-1-(dibenzo[b,d]furan-2-ylmethyl)-5-(2,6-dimethoxyphenyl)pyrrolidin-2-one], the IC50 at human orexin-1 receptor worked out at 2 nM; at human orexin-2 receptor (setting [1]), 5 nM.

Consider `CCOc1cccc(F)c1[C@@H]1C[C@@H](O)C(=O)N1Cc1ccc(OC(F)(F)F)c(F)c1` (racemic) [Example 428, rac-(3R*,5S*)-5-(2-ethoxy-6-fluorophenyl)-1-(3-fluoro-4-(trifluoromethoxy)benzyl)-3-hydroxypyrrolidin-2-one], for which the IC50 was determined as 1710 nM at human orexin-1 receptor and 53 nM on human orexin-2 receptor (setting [1]).

`CCOc1cc(F)cc(F)c1[C@@H]1C[C@@H](O)C(=O)N1Cc1ccc(OC(F)(F)F)cc1` (racemic) [Example 431, rac-(3R*,5S*)-5-(2-ethoxy-4,6-difluorophenyl)-3-hydroxy-1-(4-(trifluoromethoxy)benzyl)pyrrolidin-2-one]: the 50% inhibitory concentration (IC50) stood at 1490 nM at human orexin-1 receptor and 255 nM at human orexin-2 receptor (setting [1]).

These data come from patent US9242970B2 (ACTELION PHARMACEUTICALS LTD., priority 2010, dated 2016).
